Results: US9370764B2, “Compositions and particles containing cellulosic fibers and stabilized-and/or activated-urease inhibitors, as well as methods of making and using the same” (INTERNATIONAL PAPER COMPANY, priority 2007, dated 2016)

Experiment: On-shelf aging of PPDA treated pulp at room conditions
Format: physicochemical
Conditions: pulp treated with 400 ppm PPDA
Protocol: Bleached softwood pulps that were treated with 400 ppm PPDA was stored on shelf as dry pulp in ambient conditions for 18 weeks and 20 weeks. The aged pulp samples were then fluffed and tested for ammonia generation by bacteria as in Example 1.
Aging test was also conducted on-shelf in the bag at room conditions. The result was shown in Table 12, and plotted in FIG. 5 in log scale.

NP(N)(=O)Oc1ccccc1 [PPDA, phenylphosphorodiamidate]
PPDA remaining on the pulp (HPLC) (stored on shelf as dry pulp in ambient conditions for 18 weeks): trace amount | PPDA remaining on the pulp (HPLC) (stored on shelf as dry pulp in ambient conditions for 20 weeks): no PPDA remaining
